From PMC7468467, “Characterization of a Novel Chromosomal Class C β-Lactamase, YOC-1, and Comparative Genomics Analysis of a Multidrug Resistance Plasmid in Yokenella regensburgei W13” (Frontiers in Microbiology, 2020)

Each compound was assayed against T1, YOC-1 (Yokenella regensburgei, UniProt A0AB38FXT7) (assay: nitrocefin hydrolysis inhibition, spectrophotometric). Details: 100 μM nitrocefin; 5 min preincubation; 37°C.
T1 construct: gene C7387_3136; signal peptide (residues 1-22) removed; pCold I in E. coli BL21, N-terminal His tag removed by enterokinase
Assay type: biochemical

T1 sequence (A0AB38FXT7 entry or part of it): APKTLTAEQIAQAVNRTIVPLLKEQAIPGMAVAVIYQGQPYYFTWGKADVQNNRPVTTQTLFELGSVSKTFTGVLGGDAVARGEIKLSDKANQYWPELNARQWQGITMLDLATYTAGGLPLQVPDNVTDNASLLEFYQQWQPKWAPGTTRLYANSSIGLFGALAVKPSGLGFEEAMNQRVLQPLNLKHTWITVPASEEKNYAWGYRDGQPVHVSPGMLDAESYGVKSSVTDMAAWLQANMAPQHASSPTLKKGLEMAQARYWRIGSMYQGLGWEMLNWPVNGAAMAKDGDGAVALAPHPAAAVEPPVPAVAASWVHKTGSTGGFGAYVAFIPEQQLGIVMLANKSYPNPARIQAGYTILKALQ

Going from `NC(=O)[C@@H]1CC[C@@H]2CN1C(=O)N2OS(=O)(=O)O` [avibactam] to `O=C(O)[C@H]1/C(=C/CO)O[C@@H]2CC(=O)N21` [clavulanic acid], the IC50 rises from 0.00117 ± 0.0002 µM to 57.33 ± 0.03 µM (49000-fold).

`Nc1nc2c(ncn2[C@@H]2O[C@H](COP(=O)(O)O)[C@@H](O)[C@H]2O)c(=O)[nH]1` [GMP] showed an IC50 of 81.73 ± 0.02 µM.
